This is an account of results in patent publication US5158946A, “Cephalosporin derivatives and pharmaceutical compositions” (Beecham Group p.l.c., priority 1989, dated 1992).

Values after ≈ are worked out from the molar mass of the structure shown. Structures can show the parent of a compound that is named as a salt. Where two headings read alike, the source gives them in different places. Where only a bound is given, the exact number is not on record here.

One experiment concerns S. aureus (Oxford). The experiment in a line: In vitro antibacterial activity, MIC against S. aureus (Oxford). In kind it is cell-based.
A further experiment has as its system E. coli (NCTC 10418). As to the kind of experiment: In vitro antibacterial activity, MIC against E. coli (NCTC 10418). In kind it is cell-based.
Setting [1] is: Staphylococcus aureus, read-out: MIC.
Setting [2] is: Escherichia coli, NCTC10418, E. coli (NCTC 10418), read-out: MIC.

A word on the MIC: it is the smallest concentration in the dilution series that meets the test's criterion for growth inhibition. As to `CO/N=C(\C(=O)N[C@@H]1C(=O)N2C(C(=O)O)=C(OC3C=C(C)C(=O)O3)CS[C@H]12)c1csc(N)n1` (single isomer, unassigned) [3 Isomer (a)], the MIC in the experiment on S. aureus (Oxford) (setting [1]) worked out at 4 µg/mL (≈ 8.07 µM); in the experiment with E. coli (NCTC 10418) (E. coli (NCTC 10418)), 0.5 µg/mL (≈ 1.01 µM).
As to `CO/N=C(\C(=O)N[C@@H]1C(=O)N2C(C(=O)O)=C(OC3C=C(C)C(=O)O3)CS[C@H]12)c1csc(N)n1` (single isomer, unassigned) [3 Isomer (b)], the MIC in the experiment with S. aureus (Oxford) came to 4 µg/mL (≈ 8.07 µM); with E. coli (NCTC 10418) (E. coli (NCTC 10418)) it was 0.12 µg/mL (≈ 0.242 µM).
In the case of `CO/N=C(\C(=O)N[C@@H]1C(=O)N2C(C(=O)[O-])=C(SCC3=CC(=O)OC3)CS[C@H]12)c1csc(N)n1.[Na+]` [Example 1, Sodium 7β-[2-(2-Aminothiazol-4-yl)-2-(Z)-methoxyiminoacetamido]-3-(2,5-dihydro-2-oxofuran-4-ylmethylthio)ceph-3-em-4-carboxylate], the minimal inhibitory concentration (MIC) with S. aureus (Oxford) (setting [1]) is 0.25 µg/mL; in the experiment with E. coli (NCTC 10418) (setting [2]), less than 0.03 µg/mL.
For the compound `CO/N=C(\C(=O)N[C@@H]1C(=O)N2C(C(=O)O)=C(SC3=CC(=O)OC3)CS[C@H]12)c1csc(N)n1` [Example 2, Sodium 7β-[2-(2-Aminothiazol-4-yl)-2-(Z)-methoxyiminoacetamido]-3-(2,5-dihydro-2-oxofuran-4-ylthio)ceph-3-em-4-carboxylate], the MIC with S. aureus (Oxford) (setting [1]) is 1 µg/mL; in the experiment with E. coli (NCTC 10418) (setting [2]), 0.12 µg/mL.
For `CO/N=C(\C(=O)N[C@@H]1C(=O)N2C(C(=O)O)=C(Sc3cc(C)oc(=O)c3)CS[C@H]12)c1csc(N)n1` [Example 4, Sodium 7β-[2-(2-Aminothiazol-4-yl)-2-(Z)-methoxyiminoacetamido]-3-(6-methyl-2-oxo-2H-pyran-4-ylthio)ceph-3-em-4-carboxylate] the same measures were 1 µg/mL and 0.25 µg/mL.
Regarding `CO/N=C(\C(=O)N[C@@H]1C(=O)N2C(C(=O)[O-])=C(CSC3=CC(=O)OC3)CS[C@H]12)c1csc(N)n1.[Na+]` [Example 5, Sodium 7β-[2-(2-Aminothiazol-4-yl)-2-(Z)-methoxyiminoacetamido]-3-(2,5-dihydro-2-oxofuran-4-ylthiomethyl)ceph-3-em-4-carboxylate], the minimal inhibitory concentration (MIC) is 0.25 µg/mL with S. aureus (Oxford) (setting [1]) and less than 0.03 µg/mL in the experiment with E. coli (NCTC 10418) (setting [2]).
Consider `Nc1nc(/C(=N/O)C(=O)N[C@@H]2C(=O)N3C(C(=O)O)=C(CSC4=CC(=O)OC4)CS[C@H]23)cs1` [Example 6, 7β-[2-(2-Aminothiazol-4-yl)-2-(Z)-hydroxyiminoacetamido]-3-(2,5-dihydro-2-oxofuran-4-ylthiomethyl)ceph-3-em-4-carboxylic acid], for which the minimum inhibitory concentration (MIC) was 0.12 µg/mL (≈ 0.241 µM) in the experiment on S. aureus (Oxford) (setting [1]) and less than 0.03 µg/mL with E. coli (NCTC 10418) (setting [2]).
As for `CO/N=C(\C(=O)N[C@@H]1C(=O)N2C(C(=O)[O-])=C(SCC3=CCOC3=O)CS[C@H]12)c1csc(N)n1.[Na+]` [Example 7, Sodium 7β-[2-(2-Aminothiazol-4-yl)-2-(Z)-methoxyiminoacetamido]-3-(2,5-dihydro-2-oxofuran-3-ylmethylthio)ceph-3-em-4-carboxylate], the MIC in the experiment with S. aureus (Oxford) (setting [1]) was 0.5 µg/mL; in the experiment on E. coli (NCTC 10418) (setting [2]) it was less than 0.03 µg/mL.
For the compound `Nc1nc(/C(=N/O)C(=O)N[C@@H]2C(=O)N3C(C(=O)O)=C(SCC4=CCOC4=O)CS[C@H]23)cs1` [Example 8, 7β-[2-(2-Aminothiazol-4-yl)-2-(Z)-hydroxyiminoacetamido]-3-(2,5-dihydro-2-oxofuran-3-ylmethylthio)ceph-3-em-4-carboxylic acid], the figures for the MIC in the experiment on S. aureus (Oxford) (setting [1]) and in the experiment on E. coli (NCTC 10418) (setting [2]) were 0.25 µg/mL (≈ 0.502 µM) and 0.12 µg/mL (≈ 0.241 µM), respectively.
Regarding `CO/N=C(\C(=O)N[C@@H]1C(=O)N2C(C(=O)[O-])=C(SC3CCOC3=O)CS[C@H]12)c1csc(N)n1.[Na+]` (stereo partly drawn) [Example 9, Sodium 7β-[2-(2-Aminothiazol-4-yl)-2-(Z)-methoxyiminoacetamido]-3-(2-oxotetrahydrofuran-3-ylthio)ceph-3-em-4-carboxylate], the MIC came out at 2 µg/mL in the experiment on S. aureus (Oxford) (setting [1]) and 0.12 µg/mL in the experiment with E. coli (NCTC 10418) (setting [2]).
Take `Nc1nc(/C(=N/O)C(=O)N[C@@H]2C(=O)N3C(C(=O)O)=C(SCC4=CC(=O)OC4)CS[C@H]23)cs1` [Example 12, 7β-[2-(2-Aminothiazol-4-yl)-2-(Z)-hydroxyiminoacetamido]-3-(2,5-dihydro-2-oxofuran-4-ylmethylthio)ceph-3-em-4-carboxylic acid]: the minimal inhibitory concentration (MIC) in the experiment with S. aureus (Oxford) (setting [1]) came out at 0.25 µg/mL (≈ 0.502 µM); with E. coli (NCTC 10418) (setting [2]), 0.12 µg/mL (≈ 0.241 µM).
Regarding `CO/N=C(\C(=O)N[C@@H]1C(=O)N2C(C(=O)[O-])=C(CSC3=C(Cl)C(=O)OC3)CS[C@H]12)c1csc(N)n1.[Na+]` [Example 13, Sodium 7β-[2-(2-Aminothiazol-4-yl)-2-(Z)-methoxyiminoacetamido]-3-(3-chloro-2,5-dihydro-2-oxofuran-4-ylthiomethyl)ceph-3-em-4-carboxylate], the minimum inhibitory concentration (MIC) was 0.25 µg/mL with S. aureus (Oxford) (setting [1]) and less than 0.03 µg/mL in the experiment on E. coli (NCTC 10418) (setting [2]).
Consider `CO/N=C(\C(=O)N[C@@H]1C(=O)N2C(C(=O)O)=C(CSc3cc(C)oc(=O)c3)CS[C@H]12)c1csc(N)n1` [Example 14, Sodium 7β-[2-(2-Aminothiazol-4-yl)-2-(Z)-methoxyiminoacetamido]-3-(6-methyl-2-oxo-2H-pyran-4-ylthiomethyl)ceph-3-em-4-carboxylate], for which the figures for the minimal inhibitory concentration (MIC) with S. aureus (Oxford) (setting [1]) and in the experiment with E. coli (NCTC 10418) (setting [2]) were 0.5 µg/mL and less than 0.03 µg/mL, respectively.
In the case of `CO/N=C(\C(=O)N[C@@H]1C(=O)N2C(C(=O)O)=C(CSc3ccoc(=O)c3)CS[C@H]12)c1csc(N)n1` [Example 15, Sodium 7β-[2-(2-Aminothiazol-4-yl)-2-(Z)-methoxyiminoacetamido]-3-(2-oxo-2H-pyran-4-ylthiomethyl)ceph-3-em-4-carboxylate], the values for the MIC in the experiment on S. aureus (Oxford) (setting [1]) and in the experiment with E. coli (NCTC 10418) (setting [2]) were 0.25 µg/mL and less than 0.03 µg/mL, respectively.
Turning to `Nc1nc(/C(=N/OCC(=O)O)C(=O)N[C@@H]2C(=O)N3C(C(=O)O)=C(CSC4=CC(=O)OC4)CS[C@H]23)cs1` [Example 16, 7β-[2-(2-Aminothiazol-4-yl)-2-(Z)-carboxymethoxyiminoacetamido]-3-(2,5-dihydro-2-oxofuran-4-ylthiomethyl)ceph-3-em-4-carboxylic acid, disodium salt], the MIC with S. aureus (Oxford) (setting [1]) was 8 µg/mL; with E. coli (NCTC 10418) (setting [2]), less than 0.06 µg/mL.
For `Cc1cc(SCC2=C(C(=O)O)N3C(=O)[C@@H](NC(=O)/C(=N\O)c4csc(N)n4)[C@H]3SC2)cc(=O)o1` [Example 17, 7β-[2-(2-Aminothiazol-4-yl)-2-(Z)-hydroxyiminoacetamido]-3-(6-methyl-2-oxo-2H-pyran-4-ylthiomethyl)ceph-3-em-4-carboxylic acid] the same measures were 0.25 µg/mL (≈ 0.477 µM) and 0.06 µg/mL (≈ 0.115 µM).
Take `CO/N=C(\C(=O)N[C@@H]1C(=O)N2C(C(=O)[O-])=C(OCC3=CC(=O)OC3)CS[C@H]12)c1csc(N)n1.[Na+]` [Example 22, Sodium 7β-[2-(2-Aminothiazol-4-yl)-2-(Z)-methoxyiminoacetamido]-3-(2,5-dihydro-2-oxofuran-4-ylmethyloxy)ceph-3-em-4-carboxylate]: the MIC in the experiment on S. aureus (Oxford) (setting [1]) is 2 µg/mL; in the experiment on E. coli (NCTC 10418) (setting [2]), 0.06 µg/mL.
